{
  "source": "patent US7407752B2",
  "about": "“Oligonucleotide complexes for use as anti-viral therapeutics” (priority 2003, dated 2008)",
  "key": {"[1]": {"details": "intravenous; cited from earlier work"}, "[2]": {"assay": "Systemic (intraperitoneal) delivery of Cy5-TFO-3 to mouse TG, fluorescence imaging", "assay_type": "in vivo, Balb/c mice", "details": "167 mcg intraperitoneal, 6 or 24 hours after injection", "experimental": "Cy5-labeled TFO-3 (SEQ ID 2) was then synthesized and HPLC purified. 167 mcg of Cy5-TFO-3 (SEQ ID 2) was then systemically administered via an intraperitoneal injection into uninfected and latently infected Balb/c mice. The animals were sacrificed and dissected 6 or 24 hours after injection and the TG's imaged under a red laser light source (680 nm). An uninjected, uninfected mouse was also imaged as a control for autofluorescence (nil). Fluorescence of Cy5 was detectable in the TG's of Cy5-labeled TFO-3 (SEQ ID 2) treated mice."}, "[3]": {"test_system": "HSV-1", "assay": "HSV-1 plaque reduction on Vero cells after incubation with TFO and ultraviolet-A radiation", "details": "for viral titer as percent of the unirradiated virus only control: 1 μM TFO", "quoted_text": "Viral titers were determined by plaque counts on Vero cell monolayers.\n3000 PFU/ml of HSV-1 were incubated with 1 μM TFO-3 (SEQ ID 2) at room temperature, N=5 replications per group. Viral killing (as measured by plaque-reduction) was effected by exposing the mixture to ultraviolet-A radiation for 0, 20 and 40 minutes at room temperature. HSV-1 titers were determined by plaque assay on Vero cells. […] The results were calculated as a percent of the unirradiated (0 min.) “virus only” control titers±SEM. Statistical comparisons were made between the “virus only” and “virus+TFO-3 (SEQ ID 2)” groups at each time point using an unpaired two-tailed Student's T-Test.\n3000 PFU/ml of HSV-1 was incubated with 1 μM TFO-3 (SEQ ID 2) or a (scrambled) control oligonucleotide. Viral killing was affected by exposing the mixture to ultraviolet-A radiation for 40 min. Results are expressed as percent of the “virus only” control titers±SEM. Statistical comparisons were made to the “virus only” group using the two-tailed Student's T-Test.\nHSV-1 was incubated with 1 μM TFO-3 (SEQ ID 2) with and without exposure to ultraviolet-A radiation for 40 minutes at room temperature. Results are expressed as mean viral titers±standard errors. Statistical comparisons were made using the two-tailed Student's T-Test.\nAll the groups were exposed to ultraviolet-A radiation for 40 minutes at room temperature. Results are expressed as mean viral titers ±standard error of the mean. Statistical comparisons were made using the two-tailed Mann-Whitney test for non-parametric data."}, "[4]": {"test_system": "HSV-1 LAT target sequence duplex", "assay": "Triplex formation in vitro (native polyacrylamide gel)", "assay_type": "binding", "experimental": "The target sequence bound by TFO-3 (SEQ ID 2) yielded a relatively clean duplex when end-labeled with ^32P and allowed to anneal to its purine complement. One fmole […] [The absolute amount of target DNA was one femtomole=1×10^−15 moles placed in solution to a concentration of 1.0 nM=1.0 nanomoles/liter] of this duplex was then incubated at 37 degrees C. with increasing concentrations of the […] in a binding buffer containing 10 mM Tris, pH 7.5, 1 mM spermine, 20 mM KCl, and 10% sucrose, according to a published protocol. The DNA complexes—single-strand, double-strand, and triplex—were separated in a native polyacrylamide gel. Triplex DNA complex formation was detected at a triplex:duplex ratio of 10:1. Triplex formation was virtually complete at a triplex:duplex ratio of 100:1, corresponding to a triplex oligonucleotide concentration of 100 nM, consistent with other reports in the literature and below that believed to be achievable in vivo."}, "[5]": {"test_system": "TG neurons", "assay": "Movement of 32P-labeled TFO-3 into rat TG neuron cultures", "assay_type": "cell-based"}, "[6]": {"test_system": "HSV-1 Target-3 reporter construct C2A", "assay": "Luciferase reporter transcription inhibition, construct C2A in HEK-293", "assay_type": "cell-based, human", "details": "HEK-293, 1 or 10 μM TFO, 24 hours"}, "[7]": {"test_system": "parent (control) reporter construct pGL3", "assay": "Luciferase reporter transcription inhibition, parent construct pGL3 in HEK-293", "assay_type": "cell-based, human", "details": "HEK-293, 1 or 10 μM TFO, 24 hours, construct lacking HSV-1 target sequence"}, "[8]": {"test_system": "TG neurons", "assay": "Ex vivo delivery of TFO-3 to latently infected mouse TG", "details": "42 micromolar, 1.5 hrs ex vivo", "experimental": "Ex vivo delivery of TFOs was then performed by incubating latently infected mouse TG ex vivo for 1.5 hrs in a 42 micromolar solution of TFO-3."}, "[9]": {"details": "Example 9, 1 μM, UVA 40 minutes"}, "[10]": {"details": "0.5 nM starting concentration, +20 ng/ml NGF"}},
  "note": "Several values for one entry are separate records, joined by “and”; a condition that tells them apart may be missing. Equal entries are not always repeated.",
  "data": [
    {"compound": "Nc1nc2c(ncn2COCCO)c(=O)[nH]1", "note": "[Acyclovir]", "values": [
      {"measurement": "steady-state trough concentration", "setting": "[1]", "result": "2 μg/ml and 8 μM"}
    ]},
    {"compound": "Cy5-labeled TFO-3: TFO-3 (SEQ ID 2) labeled with Cy5, HPLC purified (GGGAGGAGGGAGGGAAGGAGGGGG; DNA, backbone not given here; Cy5 label attached, triplex-forming oligonucleotide, further chemistry not fully specified)", "values": [
      {"measurement": "fluorescence of Cy5 in the TG's", "setting": "[2]", "result": "detectable"}
    ]},
    {"compound": "TFO-1: purine motif triplex-forming oligonucleotide binding a target site in the HSV-1 LAT domain, SEQ ID 1 (GAAGAGGGGGGGGGGAAGAAG; DNA, backbone not given here)", "values": [
      {"measurement": "antiviral effect", "setting": "[3]; [9]", "result": "no measurable antiviral effect"}
    ]},
    {"compound": "TFO-3: purine motif triplex-forming oligonucleotide binding a target site in the HSV-1 LAT domain, SEQ ID 2 (GGGAGGAGGGAGGGAAGGAGGGGG; further chemistry not given here)", "values": [
      {"measurement": "TFO concentration at which triplex formation is virtually complete", "setting": "[4]; 37 degrees C., target duplex 1.0 nM", "result": 100, "unit": "nM"},
      {"measurement": "TFO concentration at which triplex formation begins", "setting": "[4]; HSV-1 LAT target", "result": 10, "unit": "nM"},
      {"measurement": "average cellular oligonucleotide (32P) concentration", "setting": "[5]; [10]", "result": 95, "unit": "nM"},
      {"measurement": "average oligonucleotide (32P) concentration in the supernatants", "setting": "[5]; [10]", "result": 0.44, "unit": "nM"},
      {"measurement": "uptake into the neurons", "setting": "[5]; 0.5 nM, 2, 6 or 24 hours", "result": "progressively taken up"},
      {"measurement": "luciferase production", "setting": "[6]", "result": "significantly inhibited"},
      {"measurement": "luciferase production", "setting": "[7]", "result": "did not inhibit"},
      {"measurement": "fluorescence in TG neurons", "setting": "[8]", "result": "Intense red fluorescence"},
      {"measurement": "viral titer as percent of the unirradiated virus only control", "setting": "[3]; UVA 0 min", "result": "approximately 80%"},
      {"measurement": "viral titer as percent of the unirradiated virus only control", "setting": "[3]; UVA 20 min", "result": "approximately 50%"},
      {"measurement": "viral titer as percent of the unirradiated virus only control", "setting": "[3]; UVA 40 min", "result": "~30", "unit": "%"},
      {"measurement": "percent of virus only control viral titer", "setting": "[3]; Example 7, strain 17 syn+, 1 μM, UVA 40 min", "result": "approximately 20%"},
      {"measurement": "viral killing (plaque-reduction) added to that of UVA alone", "setting": "[3]; Example 8, 1 μM, UVA 40 minutes", "result": 40, "unit": "%"},
      {"measurement": "reduction of viral titers", "setting": "[3]; [9]", "result": 45, "unit": "%"}
    ]}
  ]
}
